The subject of test [1] is anaesthetized, spontaneously breathing pigs. As to the kind of experiment: Pig model of obstructive sleep apnea (OSA): upper airway collapsibility under negative pressure. Format: in vivo, German Landrace pigs.
Excerpt: B-3 Animal Model of Obstructive Sleep Apnoea in the Pig
Using negative pressure, it is possible to induce collapse and thus obstruction of the upper respiratory tract in anesthetized, spontaneously breathing pigs [Wirth et al., Sleep 36, 699-708 (2013)].
German Landrace pigs are used for the model. The pigs are anesthetized and tracheotomized. One cannula each is inserted into the rostral and the caudal part of the trachea. Using a T connector, the rostral cannula is connected on the one hand to a device generating negative pressures and on the other hand to the caudal cannula. Using a T connector, the caudal cannula is connected to the rostral cannula and to a tube which allows spontaneous breathing circumventing the upper respiratory tract. By appropriate closing and opening of the tubes it is thus possible for the pig to change from normal nasal breathing to breathing via the caudal cannula during the time when the upper respiratory tract is isolated and connected to the device for generating negative pressures. The muscle activity of the musculus genioglossus is recorded by electromyogram (EMG).
(§1) At certain points in time, the collapsibility of the upper respiratory tract is tested by having the pig breathe via the caudal cannula and applying negative pressures of −50, −100 and −150 cm water head (cmH2O) to the upper respiratory tract. This causes the upper respiratory tract to collapse, which manifests itself in an interruption of the airflow and a pressure drop in the tube system. This test is conducted prior to the administration of the test substance and at certain intervals after the administration of the test substance. An appropriately effective test substance can prevent this collapse of the respiratory tract in the inspiratory phase.
Administration of the test substance can be intranasal, intravenous, subcutaneous, intraperitoneal, intraduodenal or intragastral.
The therapeutic potential of the combination of an α2-Adrenoceptor subtype C (alpha-2C) antagonists with a TASK⅓ channel blocker according to the present invention in sleep apnea can be assessed preclinically in a pig model of obstructive sleep apnea (OSA).
Using negative pressure, it is possible to induce collapse and thus obstruction of the upper respiratory tract in anaesthetized, spontaneously breathing pigs (Wirth K. J. et al., Sleep 36(5) (2013) pp. 699-708).
German Landrace pigs are used for the model. The pigs are anaesthetized and tracheotomized. Two tracheal cannulas are inserted into the trachea, one into the rostral part and the other into the caudal part of the trachea. Using a connection piece, the rostral cannula is connected to a tube to the negative pressure device and to the distal tracheal cannula. The distal tracheal cannula is additionally connected to a tube with an open end to atmosphere via a connection piece that served for free tracheal breathing, circumventing the upper airway. By appropriate opening and clamping of those tubes breathing can be switched from nasal breathing to breathing through the caudal tracheal cannula, circumventing the upper airway, and the (isolated) upper airway can be connected to the negative pressure device, causing airflow in the inspiratory direction.
as §1, with “(cm H2O)” for “(cmH2O)”

The target of the next test is human ADRA2C receptor (Homo sapiens (Human), UniProt P18825). As to the kind of experiment: In vitro activity assay to determine the inhibition of recombinant ADRA2C (CHO-K1 cells, aequorin bioluminescence). Type of test: cell-based. The following applies: inhibition of noradrenaline-induced bioluminescence signal; some mean values from multiple determinations; read-out: ARα2C IC50. In outline:
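IC50 is the concentration halving the agonist (noradrenaline)-evoked rise in aequorin luminescence, fitted by 4-parameter Hill function. Read in stable Gαq/aequorin CHO-K1 cells expressing recombinant human ADRA2C.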

[2] abbreviates: 15 μg/kg i.v. bolus then 5 μg/kg/h i.v. infusion for four hours from 0 min, time 0 min.
The mark [3] stands for this setting: 15 μg/kg i.v. bolus then 5 μg/kg/h i.v. infusion for four hours from 0 min, time 30 min.
[4] abbreviates: 15 μg/kg i.v. bolus then 5 μg/kg/h i.v. infusion for four hours from 0 min, time 60 min.
The mark [5] stands for this setting: 15 μg/kg i.v. bolus then 5 μg/kg/h i.v. infusion for four hours from 0 min, time 90 min.
Setting [6] is: 15 μg/kg i.v. bolus then 5 μg/kg/h i.v. infusion for four hours from 0 min, time 120 min.
The mark [7] stands for this setting: 0.3 μg intranasal at 0 min, time 0 min.
Setting [8] is: 0.3 μg intranasal at 0 min, time 10 min.
[9] abbreviates: 0.3 μg intranasal at 0 min, time 30 min.
Setting [10] is: 0.3 μg intranasal at 0 min, time 60 min.
Setting [11] is: 0.3 μg intranasal at 0 min, time 90 min.

The structures appear in SMILES notation.

Sequence of human ADRA2C receptor (P18825 whole entry): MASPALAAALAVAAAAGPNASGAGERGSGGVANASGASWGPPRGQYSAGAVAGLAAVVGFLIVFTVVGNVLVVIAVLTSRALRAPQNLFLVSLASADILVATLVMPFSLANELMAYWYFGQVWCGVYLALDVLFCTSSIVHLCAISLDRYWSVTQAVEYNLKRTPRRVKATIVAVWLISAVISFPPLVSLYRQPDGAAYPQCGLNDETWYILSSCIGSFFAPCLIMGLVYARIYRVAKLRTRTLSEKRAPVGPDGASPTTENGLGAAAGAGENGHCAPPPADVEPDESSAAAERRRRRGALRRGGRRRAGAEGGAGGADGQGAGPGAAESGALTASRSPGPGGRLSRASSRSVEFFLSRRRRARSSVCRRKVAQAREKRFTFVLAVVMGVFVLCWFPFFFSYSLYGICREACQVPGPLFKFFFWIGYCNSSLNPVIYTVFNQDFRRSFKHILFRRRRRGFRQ

For `COCC1CCCN(C2CCN(c3ncc(C(=O)NCc4ncc(F)cc4F)s3)CC2)C1` (stereo not drawn), the “Percent pigs without collaps −50 cm H2O” value in test [1] (setting [2]) was 0%; in test [1] (setting [3]) it was 0%; in test [1] (setting [4]), 0%; in test [1] (setting [5]), 50%; in test [1] (setting [6]), 0%. The “Percent pigs without collaps −100 cm H2O” value in test [1] (setting [2]) is reported as 0%; in test [1] (setting [3]), 0%; in test [1] (setting [4]), 0%; in test [1] (setting [5]), 50%; in test [1] (setting [6]), 0%. Moreover, the “Percent pigs without collaps −150 cm H2O” value came out at 0% in test [1] (setting [2]); 0% in test [1] (setting [3]); 0% in test [1] (setting [4]); 50% in test [1] (setting [5]); 0% in test [1] (setting [6]). For the same compound, the “time points at which upper airway collapsibility was inhibited at all negative pressures of −50, −100 and −150 cm H2O in all pigs” value in test [1] (third set, 15 μg/kg i.v. bolus followed by i.v. infusion of 5 μg/kg/h for four hours, alone) is given as “at no time point”.
Consider `COc1ccc(Cl)c(C(=O)N2C3CCC2CN(Cc2c(-c4ccc(C(C)C)cc4)nc4ncccn24)C3)n1` [(3-chloro-6-methoxypyridin-2-yl)(3-{[2-(4-isopropylphenyl)imidazo[1,2-a]pyrimidin-3-yl]methyl}-3,8-diazabicyclo[3.2.1]oct-8-yl)methanone], for which the “Percent pigs without collaps −50 cm H2O” value was 0% in test [1] (setting [7]); 33% in test [1] (setting [8]); 0% in test [1] (setting [9]); 0% in test [1] (setting [10]); 0% in test [1] (setting [11]). The “Percent pigs without collaps −100 cm H2O” value in test [1] (setting [7]) turned out to be 0%; in test [1] (setting [8]), 33%; in test [1] (setting [9]) it was 0%; in test [1] (setting [10]), 0%; in test [1] (setting [11]) it was 0%. Also, the “Percent pigs without collaps −150 cm H2O” value in test [1] (setting [7]), in test [1] (setting [8]), in test [1] (setting [9]), in test [1] (setting [10]) and in test [1] (setting [11]) was 0% each time.
With `COc1cccc(C(=O)N2CCN(Cc3c(-c4ccc(Cl)cc4)nc4ccccn34)CC2)n1` [(4-{[2-(4-chlorophenyl)imidazo[1,2-a]pyridin-3-yl]methyl}piperazin-1-yl)(6-methoxypyridin-2-yl)methanone], the “Percent pigs without collaps −50 cm H2O” value in test [1] (setting [7]), in test [1] (setting [8]), in test [1] (setting [9]) and in test [1] (setting [10]) was 0% in each case. In addition, the “Percent pigs without collaps −100 cm H2O” value in test [1] (setting [7]), in test [1] (setting [8]), in test [1] (setting [9]) and in test [1] (setting [10]) was 0% each time. Also, the “Percent pigs without collaps −150 cm H2O” value in test [1] (setting [7]), in test [1] (setting [8]), in test [1] (setting [9]) and in test [1] (setting [10]) was 0% in each case.
For the compound `Cc1ccc2c(c1)CCN(C1CCN(c3ncc(C(=O)NCc4ncc(F)cc4F)s3)CC1)C2` [Example 146], the IC50 – broadly, the point on the concentration scale where inhibition reaches its midpoint – at human ADRA2C receptor is 0.00172 µM.
For `COCCC1CCCN(C2CCN(c3ncc(C(=O)NCc4ncc(F)cc4F)s3)CC2)C1` (stereo not drawn) [Example 148], the IC50 on human ADRA2C receptor turned out to be 0.0013 µM.
The same measure, in the same setting: the same measure for `CC(C)(C)C1CCCN(C2CCN(c3ncc(C(=O)NCc4ncc(F)cc4F)s3)CC2)C1` (stereo not drawn) [Example 149]: 0.035 µM; for `C[C@@H]1CCCN(C2CCN(c3ncc(C(=O)N(C)Cc4ncc(F)cc4F)s3)CC2)C1` [Example 150]: 0.2 µM.
The same measure, in the same setting: the same measure for `C[C@@H]1CCCN(C2CCN(c3ncc(C(=O)NCc4ccccc4Cl)s3)CC2)C1` [Example 151]: 0.17 µM.

Values taken from patent publication US20240000767A1, “COMBINATION OF AN ALPHA2-ADRENOCEPTOR SUBTYPE C (ALPHA-2C) ANTAGONIST WITH A TASK1/3 CHANNEL BLOCKER FOR THE TREATMENT OF SLEEP APNEA” (Bayer Aktiengesellschaft, priority 2020, published 2024).
